The experiment has as its target T1, TRPV3 (G573S) (Homo sapiens, UniProt Q8NET8, G573S).
T1 construct: host or cells: HEK 293T (transient transfection, pEGFP-N1 co-transfected as a marker)
T1 sequence (Q8NET8 1-790 G573S): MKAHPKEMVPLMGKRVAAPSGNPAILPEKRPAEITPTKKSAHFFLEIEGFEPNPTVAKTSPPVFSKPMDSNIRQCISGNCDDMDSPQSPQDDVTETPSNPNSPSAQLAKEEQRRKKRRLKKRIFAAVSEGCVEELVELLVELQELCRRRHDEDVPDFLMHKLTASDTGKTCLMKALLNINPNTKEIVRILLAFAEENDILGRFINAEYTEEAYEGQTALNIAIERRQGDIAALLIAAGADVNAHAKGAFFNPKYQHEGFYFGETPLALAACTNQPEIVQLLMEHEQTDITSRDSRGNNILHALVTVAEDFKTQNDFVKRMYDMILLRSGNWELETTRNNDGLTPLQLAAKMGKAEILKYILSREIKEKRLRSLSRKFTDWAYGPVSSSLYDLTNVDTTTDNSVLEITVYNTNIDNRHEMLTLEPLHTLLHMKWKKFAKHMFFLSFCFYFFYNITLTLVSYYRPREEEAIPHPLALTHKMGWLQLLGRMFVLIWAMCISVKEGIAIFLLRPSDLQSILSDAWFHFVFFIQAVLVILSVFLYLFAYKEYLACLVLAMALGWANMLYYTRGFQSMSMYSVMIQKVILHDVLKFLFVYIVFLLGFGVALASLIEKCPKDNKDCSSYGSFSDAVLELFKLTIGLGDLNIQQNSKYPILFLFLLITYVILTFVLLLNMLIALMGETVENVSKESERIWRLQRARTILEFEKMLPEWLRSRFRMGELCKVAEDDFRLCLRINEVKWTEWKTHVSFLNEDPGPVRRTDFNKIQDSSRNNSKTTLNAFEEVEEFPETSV
Put plainly: Fura-2 calcium imaging, spontaneous Ca2+ increase in TRPV3 (G573S)-expressing HEK 293T cells. It counts as cell-based. The following applies: 1 µM. The source says: Figure 4 Alpha-mangostin inhibited the activity of hyperactive TRPV3 mutant channels and rescued mutation-induced cell death. (A) Alpha-mangostin inhibited the channel current in representative TRPV3 (G573S)- and TRPV3 (G573C)-expressing HEK 293T cells. […] Currents were normalized to the response at −100 mV before adding alpha-mangostin. (C) Alpha-mangostin inhibited TRPV3-mediated intracellular calcium increase in TRPV3 (G573S)-expressing HEK 293T cells. […] The bar graph on the right summarizes the change in the intracellular calcium rise inhibited by alpha-mangostin. […]
Subsequently, the effects of alpha-mangostin on the activities of the mutated channels were further evaluated using intracellular calcium measurements.
Fura-2 AM (Thermo Fisher Scientific) was utilized as a fluorescent indicator to measure calcium signal, as described previously. […] To measure the cytosolic Ca^2+ level, a sequential excitation of Fura-2 is performed at 340 nm and 380 nm; then, the emission signals resulting from each excitation wavelength are measured and the ratio of these signals is calculated. […] Samples were excited using a wavelength of 380 nm for 20 ms, followed by 340 nm for 100 ms, and fluorescence at 510 nm was recorded. Recorded data were then analyzed using NIS-Element AR Version 5.00.00 (Nikon Instruments, Melville, NY, USA). […]

The structures appear in SMILES notation.

For the compound `COc1c(O)cc2oc3cc(O)c(CC=C(C)C)c(O)c3c(=O)c2c1CC=C(C)C` [Alpha-mangostin], the “Effect on spontaneous intracellular calcium increase” value is “potently attenuated”.
